Source: BindingDB's records for PubMed 11082457 (Centre De Recherches De Croissy, 2000)
pKi: −log10 of the molar value. Values joined by “and” are separate entries in the source; they are usually repeats but may differ in a detail not shown here. Identical values can stand only once.

Assays:
[1] = biological target: Beta-1 adrenergic receptor (Homo sapiens, UniProt P08588)
[2] = biological target: T1, Alpha-2A adrenergic receptor [16-465] (Rattus norvegicus, UniProt P22909)
T1 construct: 16-465
T1 sequence (P22909 whole entry): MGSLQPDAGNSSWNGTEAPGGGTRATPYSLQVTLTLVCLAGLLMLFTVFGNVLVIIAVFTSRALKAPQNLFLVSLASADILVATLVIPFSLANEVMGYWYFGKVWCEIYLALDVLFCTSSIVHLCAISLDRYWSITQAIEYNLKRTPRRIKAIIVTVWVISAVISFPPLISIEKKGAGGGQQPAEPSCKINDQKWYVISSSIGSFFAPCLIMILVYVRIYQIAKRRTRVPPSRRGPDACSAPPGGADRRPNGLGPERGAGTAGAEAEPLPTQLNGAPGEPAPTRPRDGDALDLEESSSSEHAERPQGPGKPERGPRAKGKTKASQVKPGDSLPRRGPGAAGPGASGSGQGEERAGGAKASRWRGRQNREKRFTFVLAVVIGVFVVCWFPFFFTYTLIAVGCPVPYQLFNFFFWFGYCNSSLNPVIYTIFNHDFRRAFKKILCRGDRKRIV

[3] = biological target: T2, Alpha-2A adrenergic receptor (Homo sapiens, UniProt P08913)
T2 sequence (P08913 whole entry): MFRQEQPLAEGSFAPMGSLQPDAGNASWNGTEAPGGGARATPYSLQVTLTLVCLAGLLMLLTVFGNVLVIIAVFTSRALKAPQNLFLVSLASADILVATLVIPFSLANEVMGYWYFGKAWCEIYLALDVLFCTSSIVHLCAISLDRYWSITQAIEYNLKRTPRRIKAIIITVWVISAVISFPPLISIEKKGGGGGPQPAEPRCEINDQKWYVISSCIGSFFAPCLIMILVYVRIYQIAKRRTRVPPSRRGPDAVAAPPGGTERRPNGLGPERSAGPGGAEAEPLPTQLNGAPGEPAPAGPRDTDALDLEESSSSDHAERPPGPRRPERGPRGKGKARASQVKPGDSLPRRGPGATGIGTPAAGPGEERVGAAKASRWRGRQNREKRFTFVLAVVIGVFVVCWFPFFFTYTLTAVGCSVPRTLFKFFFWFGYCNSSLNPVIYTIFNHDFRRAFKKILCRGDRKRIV

[4] = biological target: Beta-2 adrenergic receptor (Homo sapiens, UniProt P07550)
[5] = biological target: T3, Alpha-2C adrenergic receptor (Homo sapiens, UniProt P18825)
T3 sequence (P18825 whole entry): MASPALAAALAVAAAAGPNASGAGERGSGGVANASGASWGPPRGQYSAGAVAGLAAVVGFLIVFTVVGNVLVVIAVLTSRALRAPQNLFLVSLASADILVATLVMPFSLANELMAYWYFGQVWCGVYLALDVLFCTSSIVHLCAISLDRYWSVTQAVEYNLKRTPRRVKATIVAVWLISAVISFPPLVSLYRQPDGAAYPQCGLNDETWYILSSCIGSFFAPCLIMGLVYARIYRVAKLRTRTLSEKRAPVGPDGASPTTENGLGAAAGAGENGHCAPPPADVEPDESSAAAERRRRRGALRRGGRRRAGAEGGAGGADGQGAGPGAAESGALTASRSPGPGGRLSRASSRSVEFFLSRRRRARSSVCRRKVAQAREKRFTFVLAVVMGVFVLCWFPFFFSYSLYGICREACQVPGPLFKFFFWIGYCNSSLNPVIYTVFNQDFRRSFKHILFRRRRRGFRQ

Beta-1 adrenergic receptor, sequence (P08588 whole entry): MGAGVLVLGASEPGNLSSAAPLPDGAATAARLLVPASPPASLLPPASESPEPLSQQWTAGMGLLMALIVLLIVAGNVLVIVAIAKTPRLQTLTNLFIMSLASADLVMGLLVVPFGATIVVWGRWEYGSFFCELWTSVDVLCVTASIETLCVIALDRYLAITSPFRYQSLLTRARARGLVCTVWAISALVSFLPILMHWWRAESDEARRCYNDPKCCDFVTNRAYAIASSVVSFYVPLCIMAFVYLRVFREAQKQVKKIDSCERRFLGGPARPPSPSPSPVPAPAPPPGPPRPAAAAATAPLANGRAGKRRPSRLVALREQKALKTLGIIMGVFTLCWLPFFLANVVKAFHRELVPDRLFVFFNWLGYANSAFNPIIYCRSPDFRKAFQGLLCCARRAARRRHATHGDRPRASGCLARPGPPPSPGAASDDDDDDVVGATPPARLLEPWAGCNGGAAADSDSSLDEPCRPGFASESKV
Beta-2 adrenergic receptor, sequence (P07550 whole entry): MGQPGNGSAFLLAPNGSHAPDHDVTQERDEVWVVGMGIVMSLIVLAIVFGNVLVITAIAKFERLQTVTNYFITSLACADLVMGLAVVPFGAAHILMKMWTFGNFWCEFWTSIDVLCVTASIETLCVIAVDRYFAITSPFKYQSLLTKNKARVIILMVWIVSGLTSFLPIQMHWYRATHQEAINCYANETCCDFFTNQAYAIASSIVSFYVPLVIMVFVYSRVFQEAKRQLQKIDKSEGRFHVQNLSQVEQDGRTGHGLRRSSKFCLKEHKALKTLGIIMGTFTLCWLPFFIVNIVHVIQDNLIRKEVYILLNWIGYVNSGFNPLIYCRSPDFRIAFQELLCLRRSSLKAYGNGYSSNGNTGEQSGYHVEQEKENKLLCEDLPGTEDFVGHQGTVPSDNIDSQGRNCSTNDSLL

Compound | pKi [1] | pKi [2] | pKi [3] | pKi [4] | pKi [5]
NC1=NC2(CCc3ccccc3C2)CO1 (stereo not given) [S18616] | 6.00 | 9.60 | 9.25 and 9.20 and 9.50 | 6.00 | –
Cc1cccc([C@@H](C)c2cnc[nH]2)c1C | – | – | – | – | 7.82 and 8.60
